Data set [1] in a line: Fraction unbound in rat plasma. The format is ADME, cell-free.
Another data set deals with T1, Cytochrome P450 1A2 (Homo sapiens, UniProt P05177).
T1 sequence (P05177 whole entry): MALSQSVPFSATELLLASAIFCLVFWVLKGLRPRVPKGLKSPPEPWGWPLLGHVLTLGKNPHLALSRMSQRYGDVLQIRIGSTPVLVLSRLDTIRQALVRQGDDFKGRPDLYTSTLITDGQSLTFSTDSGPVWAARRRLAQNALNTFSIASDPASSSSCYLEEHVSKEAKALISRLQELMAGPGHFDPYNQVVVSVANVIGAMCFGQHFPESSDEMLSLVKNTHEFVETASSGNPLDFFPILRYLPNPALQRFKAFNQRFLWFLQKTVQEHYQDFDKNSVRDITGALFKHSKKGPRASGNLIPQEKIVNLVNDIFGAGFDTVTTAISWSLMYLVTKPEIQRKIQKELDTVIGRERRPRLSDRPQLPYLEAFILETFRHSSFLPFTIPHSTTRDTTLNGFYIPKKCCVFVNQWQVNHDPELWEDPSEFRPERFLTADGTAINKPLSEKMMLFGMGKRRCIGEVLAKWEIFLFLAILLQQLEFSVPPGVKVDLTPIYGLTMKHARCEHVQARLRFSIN
The data set is described as follows: Inhibition of CYP1A2 (unknown origin). The format is ADME.

Data set [2] has as its target T2, Muscarinic acetylcholine receptor M5 (Homo sapiens) (UniProt P08912).
T2 sequence (whole entry): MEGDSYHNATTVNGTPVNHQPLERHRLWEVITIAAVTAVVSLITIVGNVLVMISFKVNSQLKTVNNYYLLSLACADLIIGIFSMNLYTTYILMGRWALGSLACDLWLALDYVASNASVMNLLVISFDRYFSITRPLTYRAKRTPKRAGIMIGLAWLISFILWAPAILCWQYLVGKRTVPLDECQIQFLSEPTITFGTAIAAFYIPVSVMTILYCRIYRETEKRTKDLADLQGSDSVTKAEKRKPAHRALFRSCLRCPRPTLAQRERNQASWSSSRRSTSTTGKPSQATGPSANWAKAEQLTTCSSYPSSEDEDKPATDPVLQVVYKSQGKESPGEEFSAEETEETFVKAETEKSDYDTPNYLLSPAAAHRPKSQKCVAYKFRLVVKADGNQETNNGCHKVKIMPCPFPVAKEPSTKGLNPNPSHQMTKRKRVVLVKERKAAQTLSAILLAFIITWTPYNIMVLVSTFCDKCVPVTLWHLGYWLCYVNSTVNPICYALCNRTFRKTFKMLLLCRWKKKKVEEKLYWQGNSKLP
The data set is described as follows: Positive allosteric modulation of human M5 receptor expressed in CHOK1 cells by calcium mobilization assay. The format is functional, cell-based. Conditions: CHO-K1.

Data set [3] concerns the target T3, Muscarinic acetylcholine receptor M4 (Homo sapiens, UniProt P08173).
T3 sequence (P08173 whole entry): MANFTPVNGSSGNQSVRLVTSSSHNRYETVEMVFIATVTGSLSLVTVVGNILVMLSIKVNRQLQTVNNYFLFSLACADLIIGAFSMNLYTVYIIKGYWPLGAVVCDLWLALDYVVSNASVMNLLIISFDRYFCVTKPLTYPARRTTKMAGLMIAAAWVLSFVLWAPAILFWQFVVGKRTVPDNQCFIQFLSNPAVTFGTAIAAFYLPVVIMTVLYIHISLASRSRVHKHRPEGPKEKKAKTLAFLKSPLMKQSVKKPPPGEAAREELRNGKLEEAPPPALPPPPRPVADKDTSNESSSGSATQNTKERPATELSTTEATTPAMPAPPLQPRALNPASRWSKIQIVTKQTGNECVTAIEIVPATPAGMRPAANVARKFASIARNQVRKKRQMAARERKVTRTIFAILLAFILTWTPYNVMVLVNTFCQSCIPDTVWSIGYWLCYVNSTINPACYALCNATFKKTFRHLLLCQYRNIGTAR
Kind of data set: Positive allosteric modulation of human M4 receptor expressed in CHO cells coexpressing Gqi5 by calcium mobilization assay. The format is functional, cell-based. Background: A change in cytosolic calcium serves as a functional read-out for many receptors and channels.

A further data set has as its target Cytochrome P450 2D6 (Homo sapiens, UniProt P10635). The data set is described as follows: Inhibition of CYP2D6 (unknown origin). The format is ADME.
The target of data set [4] is T4, Muscarinic acetylcholine receptor M4 (Rattus norvegicus, UniProt P08485).
T4 sequence (P08485 whole entry): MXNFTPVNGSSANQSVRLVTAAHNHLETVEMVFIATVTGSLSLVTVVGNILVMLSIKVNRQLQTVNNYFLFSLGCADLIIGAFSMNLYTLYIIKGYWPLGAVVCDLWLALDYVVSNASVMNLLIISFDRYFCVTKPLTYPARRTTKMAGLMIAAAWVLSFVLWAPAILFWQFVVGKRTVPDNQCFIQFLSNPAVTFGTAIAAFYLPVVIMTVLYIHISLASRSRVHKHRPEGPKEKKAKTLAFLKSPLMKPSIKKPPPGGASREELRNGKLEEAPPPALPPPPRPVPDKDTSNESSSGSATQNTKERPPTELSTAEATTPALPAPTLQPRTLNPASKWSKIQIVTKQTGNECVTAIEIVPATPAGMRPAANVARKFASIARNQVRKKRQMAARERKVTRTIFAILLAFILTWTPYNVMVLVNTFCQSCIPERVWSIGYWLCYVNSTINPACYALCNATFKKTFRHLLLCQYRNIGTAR
The data set is described as follows: Positive allosteric modulation of rat M4 receptor expressed in CHO cells coexpressing Gqi5 by calcium mobilization assay. The format is functional, cell-based.

A further data set deals with Cytochrome P450 2C9 (Homo sapiens, UniProt P11712). The data set is described as follows: Inhibition of CYP2C9 (unknown origin). The format is ADME.
Chain of Cytochrome P450 2C9 (P11712 whole entry): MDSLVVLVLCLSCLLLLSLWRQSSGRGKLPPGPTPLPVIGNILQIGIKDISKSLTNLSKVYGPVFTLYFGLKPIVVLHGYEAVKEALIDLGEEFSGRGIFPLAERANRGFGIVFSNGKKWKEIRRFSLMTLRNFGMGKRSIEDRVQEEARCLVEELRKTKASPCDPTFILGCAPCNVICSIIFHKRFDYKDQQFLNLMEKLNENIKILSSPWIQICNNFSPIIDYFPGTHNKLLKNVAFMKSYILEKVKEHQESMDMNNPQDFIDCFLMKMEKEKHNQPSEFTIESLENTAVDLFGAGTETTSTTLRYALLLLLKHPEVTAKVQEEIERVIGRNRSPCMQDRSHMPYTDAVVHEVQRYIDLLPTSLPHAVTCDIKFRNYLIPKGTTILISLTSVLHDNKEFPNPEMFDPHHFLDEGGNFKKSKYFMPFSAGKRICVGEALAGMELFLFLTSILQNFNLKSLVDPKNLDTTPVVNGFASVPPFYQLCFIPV
The target in data set [5] is T5, Muscarinic acetylcholine receptor M4 (Homo sapiens) (UniProt P08173).
T5 sequence (whole entry): T3 sequence (P08173 whole entry)
Kind of data set: Positive allosteric modulation of human M4 receptor expressed in CHO cells coexpressing Gqi5 by calcium mobilization assay relative to acetylcholine. The format is functional, cell-based.

The target of data set [6] is T6, Muscarinic acetylcholine receptor M4 (Rattus norvegicus) (UniProt P08485).
T6 sequence (whole entry): T4 sequence (P08485 whole entry)
Kind of data set: Positive allosteric modulation of rat M4 receptor expressed in CHO cells coexpressing Gqi5 by calcium mobilization assay relative to acetylcholine. The format is functional, cell-based.

Data set [7] in a line: Fraction unbound in human plasma. The format is ADME, cell-free.
For the next data set, the target named is Cytochrome P450 3A4 (Homo sapiens, UniProt P08684). The data set is described as follows: Inhibition of CYP3A4 (unknown origin). The format is ADME.
Chain of Cytochrome P450 3A4 (P08684 whole entry): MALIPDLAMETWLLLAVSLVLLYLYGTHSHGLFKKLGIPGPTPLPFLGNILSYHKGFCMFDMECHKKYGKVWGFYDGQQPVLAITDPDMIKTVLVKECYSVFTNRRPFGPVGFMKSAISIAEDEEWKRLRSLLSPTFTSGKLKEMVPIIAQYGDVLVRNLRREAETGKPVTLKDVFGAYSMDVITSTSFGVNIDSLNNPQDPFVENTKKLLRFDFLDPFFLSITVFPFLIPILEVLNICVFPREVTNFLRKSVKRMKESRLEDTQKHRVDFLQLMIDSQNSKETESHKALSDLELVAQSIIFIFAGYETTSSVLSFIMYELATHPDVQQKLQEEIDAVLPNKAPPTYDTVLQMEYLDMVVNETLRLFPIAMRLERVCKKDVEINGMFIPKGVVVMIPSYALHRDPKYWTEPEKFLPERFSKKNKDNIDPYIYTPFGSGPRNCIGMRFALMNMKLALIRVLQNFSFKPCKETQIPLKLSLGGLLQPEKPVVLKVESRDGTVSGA

The results in this text go back to ChEMBL document CHEMBL3808342, “Discovery and optimization of a novel series of highly CNS penetrant M4 PAMs based on a 5,6-dimethyl-4-(piperidin-1-yl)thieno[2,3-d]pyrimidine core” (Bioorg Med Chem Lett, 2016).

The source made the active and inactive calls. No cut-off for these calls is given here.

Chain of Cytochrome P450 2D6 (P10635 whole entry): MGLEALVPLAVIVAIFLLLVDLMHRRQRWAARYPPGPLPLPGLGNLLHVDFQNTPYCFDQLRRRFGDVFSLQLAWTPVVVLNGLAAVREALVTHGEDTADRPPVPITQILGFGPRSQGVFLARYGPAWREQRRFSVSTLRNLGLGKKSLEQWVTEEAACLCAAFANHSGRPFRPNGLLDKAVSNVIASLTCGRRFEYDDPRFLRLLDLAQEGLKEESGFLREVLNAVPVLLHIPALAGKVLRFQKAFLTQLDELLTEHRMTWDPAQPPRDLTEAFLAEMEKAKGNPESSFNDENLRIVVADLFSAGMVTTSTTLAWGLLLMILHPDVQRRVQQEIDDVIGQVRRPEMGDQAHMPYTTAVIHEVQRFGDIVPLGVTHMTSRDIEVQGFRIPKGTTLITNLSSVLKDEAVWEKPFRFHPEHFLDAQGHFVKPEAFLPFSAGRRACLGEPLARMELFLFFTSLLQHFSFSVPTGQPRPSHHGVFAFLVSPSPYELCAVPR

For orientation: fraction unbound means free concentration divided by total concentration. A lower fraction unbound goes with little free substance. For orientation: IC50 means the concentration that gives 50% inhibition. Read a high IC50 as a need for much substance. Turning to `Cc1sc2ncnc(N3CCC(C(=O)Nc4ccc(S(N)(=O)=O)cc4)CC3)c2c1C`, the fraction unbound stood at 0.01 in data set [1] and 0.002 in data set [7]. In addition, the IC50 was more than 20000 nM against Cytochrome P450 1A2, 3400 nM against Cytochrome P450 2D6, 5800 nM against Cytochrome P450 2C9 and more than 20000 nM against Cytochrome P450 3A4. Besides, the outcome in data set [2] was inactive. For the same compound, the results for the EC50 in data set [3] (read-out: EC50), in data set [3] (read-out: pEC50 (converted)) and in data set [4] were 410 nM, 1200 nM and 160 nM, respectively. Further, the %max in [5] was found to be 76%; in data set [6], 71%.
